One experiment deals with T1, recombinant ovine COX-2 (Ovis aries, UniProt P79208).
T1 construct: purchased Cayman
T1 sequence (P79208 17-603): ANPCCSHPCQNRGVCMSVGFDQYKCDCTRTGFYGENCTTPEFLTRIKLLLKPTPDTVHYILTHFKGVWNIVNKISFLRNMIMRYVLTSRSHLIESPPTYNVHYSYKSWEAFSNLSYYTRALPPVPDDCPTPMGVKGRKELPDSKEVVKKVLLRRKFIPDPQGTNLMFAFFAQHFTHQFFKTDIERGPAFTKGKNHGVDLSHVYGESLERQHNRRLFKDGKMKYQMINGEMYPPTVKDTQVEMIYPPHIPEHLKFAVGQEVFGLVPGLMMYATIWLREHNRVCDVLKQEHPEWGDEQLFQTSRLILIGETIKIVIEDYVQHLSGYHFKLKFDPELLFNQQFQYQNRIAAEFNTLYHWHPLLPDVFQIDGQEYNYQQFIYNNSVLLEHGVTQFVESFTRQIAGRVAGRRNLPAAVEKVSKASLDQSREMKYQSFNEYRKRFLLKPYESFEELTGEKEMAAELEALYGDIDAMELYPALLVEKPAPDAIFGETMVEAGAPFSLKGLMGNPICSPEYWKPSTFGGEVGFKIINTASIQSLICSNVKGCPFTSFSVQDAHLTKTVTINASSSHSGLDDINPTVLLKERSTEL
Briefly: Inhibition of COX-2 peroxidase activity, TMPD assay (Example 3). Type of experiment: biochemical. As to conditions: IC50 normalized to the number of enzyme units. From the text: (§1) In order to screen for compounds that inhibited the COX-1 and COX-2 activities, a high throughput, in vitro assay was developed that utilized the inhibition of the peroxidase activity of both enzymes. […] Briefly, the composition or compound being examined was titrated against a fixed amount of COX-1 and COX-2 enzymes. A cleavable, peroxide chromophore was included in the assay to visualize the peroxidase activity of each enzyme in presence of arachidonic acid as a cofactor. Typically, assays were performed in a 96-well format. Each inhibitor, taken from a 10 mg/mL stock solution in 100% DMSO, was tested in triplicate at room temperature using the following range of concentrations: 0, 0.1, 1, 5, 10, 20, 50, 100, and 500 μg/mL. […] The components were mixed for 10 seconds on a rotating platform, followed by the addition of 20 μL of 2 mM N,N,N′N′-tetramethyl-p-phenylenediamine dihydrochloride (TMPD) and 20 μL of 1.1 mM arachidonic acid to initiate the reaction. The plate was shaken for 10 seconds and then incubated 5 minutes before reading the absorbance at 570 nm. The inhibitor concentration vs. % inhibition was plotted and the IC50 determined by taking the half-maximal point along the isotherm and intersecting the concentration on the X-axis. The IC50 was then normalized to the number of enzyme units in the assay.

For the next experiment, the target named is T2, recombinant ovine COX-1 (Ovis aries, UniProt P05979).
T2 sequence (P05979 25-600): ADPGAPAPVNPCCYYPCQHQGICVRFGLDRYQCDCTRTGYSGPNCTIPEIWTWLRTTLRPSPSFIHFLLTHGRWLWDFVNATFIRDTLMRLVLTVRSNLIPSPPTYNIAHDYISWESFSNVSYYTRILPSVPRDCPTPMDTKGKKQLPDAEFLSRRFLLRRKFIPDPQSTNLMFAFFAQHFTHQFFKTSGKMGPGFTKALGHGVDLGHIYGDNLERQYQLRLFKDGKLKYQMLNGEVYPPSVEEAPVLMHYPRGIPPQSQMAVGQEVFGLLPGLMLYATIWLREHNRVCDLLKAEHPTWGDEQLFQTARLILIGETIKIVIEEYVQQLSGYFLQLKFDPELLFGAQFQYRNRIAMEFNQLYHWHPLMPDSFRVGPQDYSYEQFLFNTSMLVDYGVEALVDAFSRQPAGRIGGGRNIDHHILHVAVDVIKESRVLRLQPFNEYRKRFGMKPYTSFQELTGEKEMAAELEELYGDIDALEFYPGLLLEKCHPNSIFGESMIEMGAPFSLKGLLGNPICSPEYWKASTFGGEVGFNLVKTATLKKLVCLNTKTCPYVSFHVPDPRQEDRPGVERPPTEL
The experiment in a line: Inhibition of COX-1 peroxidase activity, TMPD assay (Example 3). Type of experiment: biochemical.
Text: as §1

Experiment [1] deals with prostaglandin endoperoxide synthase. Particulars: Kalkbrenner et al. (1992); cited from earlier work.
The test system of experiment [2] is cox-2 gene transcription in human colon cancer DLD-1 cells. Particulars: Mutoh et al. (2000), read-out: IC50 suppression of cox-2 gene transcription; cited from earlier work.
The subject of the next experiment is COX-1. Particulars: cited from earlier work.
The subject of experiment [3] is carrageenin-induced mouse paw edema. Particulars: oral administration, 100 mg/kg; Min et al. (1999); cited from earlier work.
Experiment [4] deals with LTB4 (5-LOX pathway) in HT-29 cells. The experiment in a line: Competitive ELISA for LTB4 in HT-29 cells. Particulars: Homo sapiens, 3 μg/mL, 48 hrs, read-out: inhibition of LTB4 production in HT-29 cells. Type of experiment: cell-based. As to the method: A Soliprin™ formulation (80:20) was prepared as described in Example 9. (See also Example 14 of U.S. patent application Ser. […] The sample was titrated in tissue culture media containing THP-1 or HT-29 cells; monocyte cell lines that express COX-1, COX-2 and 5-LOX. A competitive ELISA for Leukotriene B4 (LTB4; Neogen, Inc., Cat #406110) was used to assess the effect of this Soliprin™ formulation on newly synthesized levels of LTB4 present in each cell line as a measure Soliprin™'s inhibitory effect on the 5-LOX pathway. The assay was performed in duplicate by adding 160,000 to 180,000 cells per well in 6-well plates. […] Each treated cell line was then harvested by centrifugation and disrupted by gentle dounce homogenization lysis in physiological buffers.
Background: ELISA stands for enzyme-linked immunosorbent assay.

Each structure is given as a SMILES string. Read-outs that look alike come from different tables or passages of the source.

Consider `O=C(O)[C@H]1O[C@@H](Oc2cc3oc(-c4ccccc4)cc(=O)c3c(O)c2O)[C@H](O)[C@@H](O)[C@@H]1O` [Baicalin], for which, at recombinant ovine COX-2, the “IC50 for COX-2” value came out at 0.28 μg/mL/unit. Further, at recombinant ovine COX-1 (peroxidase activity, IC50 normalized to the number of enzyme units), the “IC50 for COX-1” value was 0.44 μg/mL/unit of enzyme.

As for `Oc1cc(O)c2c(c1)OC(c1ccc(O)c(O)c1)C(O)C2` (stereo not drawn) [Catechin], the IC50 in experiment [1] was 40 µM; in experiment [2], 415 µM; with COX-1 (isolated from the bark of Ceiba pentandra, Noreen et al. (1998) J. Nat. Prod. 61:8-12), 80 µM.

Turning to `Oc1ccc([C@H]2Oc3cc(O)cc(O)c3C[C@H]2O)cc1` [Epiafzelechin], the IC50 in the experiment on COX-1 (isolated from Celastrus orbiculatus, Min et al. (1999)) was 15 µM. Moreover, the “anti-inflammatory activity against carrageenin-induced mouse paw edema” value in experiment [3] is “demonstrated anti-inflammatory activity”.

`CC(C)Cc1ccc(C(C)C(=O)O)cc1` (stereo not drawn) [Ibuprofen, ibuprofen]: in experiment [4], the inhibition at 3 µg/mL turned out to be 20%.

In the case of `COc1c(O)cc(O)c2c(=O)cc(-c3ccccc3)oc12` [Wogonin], on recombinant ovine COX-1 (purified Free-B-Ring flavonoids, concentration not given), the “Inhibition of COX-1” value stood at 16%.

A word on the IC50: it is the midpoint of a concentration-inhibition curve. As a reminder, the inhibition is the change of the read-out against control, counted positive when it falls.

The values are drawn from patent US8790724B2, “Formulation of dual cycloxygenase (COX) and lipoxygenase (LOX) inhibitors for mammal skin care” (Unigen, Inc., priority 2003, dated 2014).
